Results on 13 molecules are retold here after US10774071B2, “PD-1/PD-L1 inhibitors” (Gilead Sciences, Inc., priority 2018, dated 2020).

Assay [1] deals with PD-L1 (Homo sapiens (Human), UniProt Q9NZQ7). The experiment in a line: PD-L1/PD-L1 dimerization biochemical protein-protein interaction assay (ALPHA). The class given is binding. Conditions: read-out: AC50 PDL1 Dimer 1 nM.
Assay [2] has as its target FFA1 (h) (GPR40) (Homo sapiens (Human), UniProt O14842). The experiment in a line: GPR40 functional assay, antagonist effect (intracellular Ca2+, fluorimetry). The class given is cell-based. Conditions: stimulus linoleic acid 20000 nM; for inhibition at 10 µM: HEK293, human recombinant GPR40 in HEK-293 cells. On the procedure: (§1) Select compounds were tested in a functional GRP40 assay as described in Briscoe, C. P. et al. (Brit. J. Pharmacol., (2006), 148: 619-628) to determine agonist/antagonist activity. […] Using a HEK-293 cell line transiently transduced to express GPR40, the agonist/antagonist activity of select compounds has been assessed.

Assay [3] deals with FFA1 (h) (GRP40) (Homo sapiens (Human), UniProt O14842). The experiment in a line: GPR40 functional assay, agonist effect (intracellular Ca2+, fluorimetry). Conditions: HEK293, human recombinant GPR40 in HEK-293 cells, control 100 μM linoleic acid. The class given is cell-based. On the procedure: as §1
The target in assay [4] is PD-1/PD-L1 (Homo sapiens (Human), UniProt Q9NZQ7). The experiment in a line: PD-1/PD-L1 biochemical protein-protein interaction assay (ALPHA). The class given is binding. The conditions noted are these: read-out: IC50 PD-L1-PD1.
Where [5] appears, read: 0.5 nM His tagged PD-L1 and 0.5 nM FLAG tagged PD-L1, Table 4A.
The mark [6] stands for this setting: 1st replicate, read-out: % of control agonist response, 1st.
Where [7] appears, read: 2nd replicate, read-out: % of control agonist response, 2nd.
[8] abbreviates: mean, read-out: % of control agonist response, Mean.
Where [9] appears, read: 0.3 nM His tagged PD-L1, 2.5 nM biotinylated Fc-PD-1, readings of 0.064 nM are equal to or less than 0.064 nM.
The mark [10] stands for this setting: 1st replicate, read-out: % inhibition of control agonist response, 1st.
Where [11] appears, read: 2nd replicate, read-out: % inhibition of control agonist response, 2nd.
[12] abbreviates: mean, read-out: % inhibition of control agonist response, Mean.
[13] abbreviates: 0.5 nM His tagged PD-L1 and 0.5 nM FLAG tagged PD-L1, Table 4B.
Setting [14] is: 0.3 nM His tagged PD-L1, 2.5 nM biotinylated Fc-PD-1, Table 3B.

Usually AC50 stands for the concentration at which the activity in the assay is half-maximal. A word on the IC50: it is the concentration that gives 50% inhibition. The inhibition is the drop in the measured response relative to a control, in per cent.

Read-outs that look alike come from different tables or passages of the source.

FFA1 (h) (GRP40), sequence (O14842 whole entry): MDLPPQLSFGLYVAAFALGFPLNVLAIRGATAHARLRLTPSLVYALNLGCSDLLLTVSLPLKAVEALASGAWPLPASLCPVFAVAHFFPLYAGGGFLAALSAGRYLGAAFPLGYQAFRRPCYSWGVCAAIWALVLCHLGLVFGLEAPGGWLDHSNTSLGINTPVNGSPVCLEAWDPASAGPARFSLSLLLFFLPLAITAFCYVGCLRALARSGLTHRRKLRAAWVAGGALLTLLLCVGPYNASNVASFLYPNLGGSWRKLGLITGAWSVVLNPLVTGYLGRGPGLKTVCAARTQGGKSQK
FFA1 (h) (GPR40), sequence (O14842 whole entry): as above
PD-L1, sequence (Q9NZQ7 19-238): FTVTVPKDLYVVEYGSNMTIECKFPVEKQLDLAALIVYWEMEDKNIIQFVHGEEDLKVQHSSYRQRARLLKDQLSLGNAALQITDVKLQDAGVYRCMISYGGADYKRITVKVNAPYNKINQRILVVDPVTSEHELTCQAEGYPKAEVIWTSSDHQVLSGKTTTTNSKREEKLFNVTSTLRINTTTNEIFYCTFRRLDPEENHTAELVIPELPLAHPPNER
PD-L1, sequence (Q9NZQ7 19-238): as above
PD-1/PD-L1, sequence (Q9NZQ7 19-238): as above

On to `COc1nc(-c2cccc(-c3cccc4c3CC[C@@H]4Nc3nc(OC)c(CN4CC5(C(=O)O)CCC4CC5)nc3C(F)(F)F)c2Cl)ccc1CNC[C@@H]1CCC(=O)N1` [A-18, 2-((5-(((S)-4-(2-chloro-3-(6-methoxy-5-(((((S)-5-oxopyrrolidin-2-yl)methyl)amino)methyl)pyridin-2-yl)phenyl)-2,3-dihydro-1H-inden-1-yl)amino)-3-methoxy-6-(trifluoromethyl)pyrazin-2-yl)methyl)-2-azabicyclo[2.2.2]octane-4-carboxylic acid], for which the AC50 in assay [1] (setting [5]) came out at 15.7 nM. Besides, in assay [2] (10 μM, human recombinant GPR40 in HEK-293 cells, 1st replicate), the “% inhibition of control agonist response, 1st” value is reported as 8.3%. For the same molecule, the “% inhibition of control agonist response, 2nd” value in assay [2] (10 μM, human recombinant GPR40 in HEK-293 cells, 2nd replicate) is listed as 17.4%. For the same molecule, the “% inhibition of control agonist response, Mean” value in assay [2] (10 μM, human recombinant GPR40 in HEK-293 cells, mean) is 12.8%. Besides, the activity at 10 µM in assay [3] (setting [6]) was -0.6%; in assay [3] (setting [7]), -1.9%; in assay [3] (setting [8]), -1.3%. In addition, the IC50 in assay [4] (setting [9]) is no more than 0.064 nM.
As for `COc1nc(-c2cccc(-c3cccc4c3CC[C@@H]4Nc3nc(OC)c(CNC4(C(=O)O)CC4)cc3C(F)(F)F)c2Cl)ccc1CNC[C@@H]1CCC(=O)N1` [A-41], the AC50 in assay [1] (setting [5]) was determined as 7.6 nM. In addition, the inhibition at 10 µM in assay [2] (setting [10]) was found to be 23.1%; in assay [2] (setting [11]), 13.1%; in assay [2] (setting [12]), 18.1%. Moreover, the activity at 10 µM in assay [3] (setting [6]) amounted to 1.1%; in assay [3] (setting [7]), 0.1%; in assay [3] (setting [8]), 0.6%. In assay [4] (setting [9]), the IC50 was no more than 0.064 nM.
For the molecule `COc1nc(-c2cccc(-c3cccc4c3CC[C@@H]4Oc3nc(OC)c(CNC4(C(=O)O)CC4)cc3C(F)(F)F)c2Cl)ccc1CNC[C@@H]1CCC(=O)N1` [B-36], the AC50 in assay [1] (setting [13]) turned out to be 3.77 nM. The inhibition at 10 µM in assay [2] (setting [10]) was found to be 30.5%; in assay [2] (setting [11]) it was 17%; in assay [2] (setting [12]), 23.7%. Besides, the figures for the activity at 10 µM in assay [3] (setting [6]), in assay [3] (setting [7]) and in assay [3] (setting [8]) were -0.4%, -0.5% and -0.4%, respectively. Also, in assay [4] (setting [14]), the IC50 amounted to 0.064 nM.
On to `COc1nc(-c2cccc(-c3cccc4c3CC[C@@H]4Oc3nc(OC)c(CN4CC5(C(=O)O)CCC4CC5)nc3C)c2Cl)ccc1CNC[C@@H]1CCC(=O)N1` [B-149], for which, in assay [1] (setting [13]), the AC50 worked out at 32.4 nM. Besides, the inhibition at 10 µM in assay [2] (setting [10]) amounted to 8%; in assay [2] (setting [11]), 15%; in assay [2] (setting [12]), 11.5%. Also, the results for the activity at 10 µM in assay [3] (setting [6]), in assay [3] (setting [7]) and in assay [3] (setting [8]) were -2%, -0.5% and -1.2%, respectively. In addition, the IC50 in assay [4] (setting [14]) was determined as 0.064 nM.
As for `COC[C@H](NCc1cc(C(F)(F)F)c(O[C@H]2CCc3c(-c4cccc(-c5ccc(CNC[C@@H]6CCC(=O)N6)c(OC)n5)c4Cl)cccc32)nc1OC)C(=O)O` [B-264], in assay [1] (setting [13]), the AC50 turned out to be 6.55 nM. Further, the IC50 in assay [4] (setting [14]) stood at 0.064 nM.
With `COc1nc(-c2cccc(-c3cccc4c3CC[C@@H]4Oc3nc(OC)c(CN[C@@H](C)C(N)=O)cc3C(F)(F)F)c2Cl)ccc1CNC[C@@H]1CCC(=O)N1` [B-265], in assay [1] (setting [13]), the AC50 was determined as 14.2 nM. In addition, the IC50 in assay [4] (setting [14]) worked out at 0.079 nM.
As to `COc1nc(-c2cccc(-c3cccc4c3CC[C@@H]4Oc3nc(OC)c(CNCC(N)=O)cc3C(F)(F)F)c2Cl)ccc1CNC[C@@H]1CCC(=O)N1` [B-266], in assay [1] (setting [13]), the AC50 was found to be 28.5 nM. In addition, the IC50 in assay [4] (setting [14]) was found to be 0.251 nM.
`COc1nc(-c2cccc(-c3cccc4c3CC[C@@H]4Oc3nc(OC)c(CNCCC(=O)O)cc3C(F)(F)F)c2Cl)ccc1CNC[C@@H]1CCC(=O)N1` [B-267]: the AC50 in assay [1] (setting [13]) was determined as 7.26 nM. Moreover, the IC50 in assay [4] (setting [14]) worked out at 0.064 nM.
For `COc1nc(-c2cccc(-c3cccc4c3CC[C@@H]4Oc3nc(OC)c(CN[C@H](C(=O)O)C4CC4)cc3C(F)(F)F)c2Cl)ccc1CNC[C@@H]1CCC(=O)N1` [B-268], in that order: 3.76 nM and 0.064 nM.
With `CC[C@H](NCc1cc(C(F)(F)F)c(O[C@H]2CCc3c(-c4cccc(-c5ccc(CNC[C@@H]6CCC(=O)N6)c(OC)n5)c4Cl)cccc32)nc1OC)C(=O)O` [B-269], in assay [1] (setting [13]), the AC50 worked out at 6.13 nM. Moreover, the IC50 in assay [4] (setting [14]) stood at 0.064 nM.
For `COc1nc(-c2cccc(-c3cccc4c3CC[C@@H]4Oc3nc(OC)c(CN[C@H](C(=O)O)C(C)C)cc3C(F)(F)F)c2Cl)ccc1CNC[C@@H]1CCC(=O)N1` [B-270], in that order: 4.76 nM and 0.064 nM.
For the molecule `COc1nc(-c2cccc(-c3cccc4c3CC[C@@H]4Oc3nc(OC)c(CN[C@@H](C)C(=O)O)cc3C(F)(F)F)c2Cl)ccc1CNC[C@@H]1CCC(=O)N1` [B-271], the AC50 in assay [1] (setting [13]) was 1.91 nM. Moreover, in assay [4] (setting [14]), the IC50 came out at 0.064 nM.
With `COc1nc(-c2cccc(-c3cccc4c3CC[C@@H]4Oc3nc(OC)c(CNCC(=O)O)cc3C(F)(F)F)c2Cl)ccc1CNC[C@@H]1CCC(=O)N1` [B-272], the AC50 in assay [1] (setting [13]) came out at 2.26 nM. For the same molecule, the IC50 in assay [4] (setting [14]) stood at 0.064 nM.
